This is an account of results in publication PMC3781220 (The Journal of organic chemistry, 2010).

The target of assay [1] is T1, recombinant yeast squalene synthase (Saccharomyces cerevisiae, UniProt P29704).
T1 sequence (P29704 1-420 limits assumed): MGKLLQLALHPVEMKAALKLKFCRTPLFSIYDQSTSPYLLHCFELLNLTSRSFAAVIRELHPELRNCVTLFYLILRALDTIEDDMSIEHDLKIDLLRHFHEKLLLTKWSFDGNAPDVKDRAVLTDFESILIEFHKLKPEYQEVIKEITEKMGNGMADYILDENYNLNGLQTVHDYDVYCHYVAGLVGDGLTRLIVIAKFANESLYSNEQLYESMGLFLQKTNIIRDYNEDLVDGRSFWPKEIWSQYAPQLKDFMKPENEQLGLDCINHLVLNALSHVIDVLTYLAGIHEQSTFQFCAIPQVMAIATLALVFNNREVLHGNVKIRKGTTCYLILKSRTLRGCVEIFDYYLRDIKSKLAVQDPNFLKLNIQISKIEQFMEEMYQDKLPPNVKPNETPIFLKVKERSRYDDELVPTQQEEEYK
Type of assay: biochemical. Conditions: for potency ratio of 2R,3S enantiomer over 2S,3R enantiomer, absence of PPi: no added PPi.

Assay [2] concerns the target T1, recombinant yeast squalene synthase. Conditions: cited from earlier work.

Like-named read-outs stand apart in the source and are kept apart here.

Consider `CC(C)=CCC/C(C)=C/CCCCN1[C@H](COP(=O)([O-])OP(=O)([O-])[O-])[C@@]1(C)CC/C=C(\C)CCC=C(C)C.CCCC[N+](CCCC)(CCCC)CCCC.CCCC[N+](CCCC)(CCCC)CCCC.CCCC[N+](CCCC)(CCCC)CCCC` (relative stereo) [(2R,3S)-6-OPP, (2R,3S)-trans-[2-((E)-4,8-Dimethyl-3,7-nonadienyl)-1-((E)-6, 10-dimethyl-5,9-undecadienyl)-2-methylaziridin-3-yl]methyl Diphosphate, Tris (tetrabutylammonium) Salt], for which, in assay [1] (1.5 mM PPi), the “potency ratio of 2R,3S enantiomer over 2S,3R enantiomer, presence of PPi” value amounted to 4 fold. Further, in assay [1] (IC50 −PPi versus +PPi), the “synergistic effect of the PPi additive on inhibition” value is “almost no change”. The “potency ratio of 2R,3S enantiomer over 2S,3R enantiomer, absence of PPi” value in assay [1] is “about 16 fold”; in assay [1] (listed as 2R,3S enantiomer) it was 16 fold. The IC50 in assay [1] (read-out: IC50, +PPi, 1.5 mM PPi added, pH 7.2, 100 μM [3H]FPP, ± standard error) is 1.17 ± 0.08 µM.
On to `CC(C)=CCC/C(C)=C/CC/C(C)=C/COP(=O)(O)OP(=O)(O)O` [FPP, (E,E)-farnesyl diphosphate, reference compound], for which the Km in assay [1] (read-out: Km for FPP, substrate constant given with the Ki experiment) came to 20 µM. For the same molecule, the “S0.5 FPP” value in assay [2] (affinity of substrate for the enzyme) was 19 ± 6 µM.
Consider `CC(C)=CCC/C(C)=C/CC/C(C)=C/C1C(COP(=O)(O)OP(=O)(O)O)C1(C)CC/C=C(\C)CCC=C(C)C` (stereo in doubt) [PSPP, presqualene diphosphate], for which the inhibitory constant (Ki) in assay [2] (read-out: Ki PSPP, affinity of intermediate for the enzyme) was 75 ± 20 µM.
